We go through 3 molecules from PMC3940083 (International Journal for Parasitology: Drugs and Drug …, 2013).

Assay type in all cases: biochemical
The target in experiment [1] is T1, PfAdoMetDC/ODC (S-adenosyl-L-methionine decarboxylase, AdoMetDC domain) (Plasmodium falciparum, UniProt Q8IJ77).
T1 sequence (Q8IJ77 1-72): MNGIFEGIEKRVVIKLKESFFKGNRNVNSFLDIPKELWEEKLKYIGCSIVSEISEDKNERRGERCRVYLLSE
T1 sequence (Q8IJ77 73-1434): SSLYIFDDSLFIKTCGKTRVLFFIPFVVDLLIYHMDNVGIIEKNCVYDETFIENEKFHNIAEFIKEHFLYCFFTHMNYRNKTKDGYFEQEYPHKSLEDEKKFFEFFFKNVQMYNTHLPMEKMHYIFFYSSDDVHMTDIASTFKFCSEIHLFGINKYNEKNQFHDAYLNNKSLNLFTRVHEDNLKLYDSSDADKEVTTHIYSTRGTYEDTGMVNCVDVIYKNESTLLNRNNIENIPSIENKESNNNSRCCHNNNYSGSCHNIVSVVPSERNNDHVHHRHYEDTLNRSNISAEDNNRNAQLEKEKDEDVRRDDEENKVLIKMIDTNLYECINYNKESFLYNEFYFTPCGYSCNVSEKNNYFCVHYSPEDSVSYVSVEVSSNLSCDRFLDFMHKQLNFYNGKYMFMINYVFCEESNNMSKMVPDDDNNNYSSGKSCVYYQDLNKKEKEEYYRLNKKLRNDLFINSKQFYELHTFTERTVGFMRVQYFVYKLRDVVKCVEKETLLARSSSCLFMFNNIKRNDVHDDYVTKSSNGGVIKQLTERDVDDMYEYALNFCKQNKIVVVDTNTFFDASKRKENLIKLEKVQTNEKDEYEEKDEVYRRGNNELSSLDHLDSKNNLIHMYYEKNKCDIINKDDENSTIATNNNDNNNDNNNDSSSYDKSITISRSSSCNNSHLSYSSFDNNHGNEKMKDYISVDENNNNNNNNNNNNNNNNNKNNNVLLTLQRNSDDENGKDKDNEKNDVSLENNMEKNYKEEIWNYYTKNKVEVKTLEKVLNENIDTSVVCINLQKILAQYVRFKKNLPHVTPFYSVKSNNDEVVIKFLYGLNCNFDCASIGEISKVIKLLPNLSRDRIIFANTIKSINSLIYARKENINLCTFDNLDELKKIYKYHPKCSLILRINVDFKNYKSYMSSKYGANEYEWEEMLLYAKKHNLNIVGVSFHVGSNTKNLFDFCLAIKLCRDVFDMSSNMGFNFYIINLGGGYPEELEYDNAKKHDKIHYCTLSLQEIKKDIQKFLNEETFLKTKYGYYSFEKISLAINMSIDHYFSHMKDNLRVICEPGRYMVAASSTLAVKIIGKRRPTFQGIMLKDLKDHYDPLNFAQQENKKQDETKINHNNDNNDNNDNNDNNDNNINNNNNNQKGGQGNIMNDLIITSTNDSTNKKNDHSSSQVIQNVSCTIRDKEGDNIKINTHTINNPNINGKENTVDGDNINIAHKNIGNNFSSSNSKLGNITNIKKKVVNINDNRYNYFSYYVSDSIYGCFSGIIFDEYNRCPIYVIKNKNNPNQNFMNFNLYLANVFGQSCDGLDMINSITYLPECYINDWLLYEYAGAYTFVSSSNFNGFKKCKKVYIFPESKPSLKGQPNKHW
The settings on record: read-out: Ki.

Experiment [2] deals with T2, PfAdoMetDC (S-adenosyl-L-methionine decarboxylase) (Plasmodium falciparum, UniProt Q8IJ77).
T2 sequence (Q8IJ77 1-72 limits assumed): T1 sequence (Q8IJ77 1-72)
T2 sequence (Q8IJ77 73-529 limits assumed): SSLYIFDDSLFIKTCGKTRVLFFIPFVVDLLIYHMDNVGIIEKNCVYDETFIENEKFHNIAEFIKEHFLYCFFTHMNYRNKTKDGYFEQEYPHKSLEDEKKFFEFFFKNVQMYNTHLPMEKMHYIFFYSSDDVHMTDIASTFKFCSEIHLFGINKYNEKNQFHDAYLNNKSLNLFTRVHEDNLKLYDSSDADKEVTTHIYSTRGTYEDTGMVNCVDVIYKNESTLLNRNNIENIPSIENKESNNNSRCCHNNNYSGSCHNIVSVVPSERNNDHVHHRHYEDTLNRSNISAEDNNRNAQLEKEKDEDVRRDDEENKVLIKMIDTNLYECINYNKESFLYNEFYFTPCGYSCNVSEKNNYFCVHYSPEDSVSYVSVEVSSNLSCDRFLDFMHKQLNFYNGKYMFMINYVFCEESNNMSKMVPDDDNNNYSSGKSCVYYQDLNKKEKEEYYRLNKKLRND
The note with it: read-out: Ki.

In experiment [3] the target is T2, PfAdoMetDC (S-adenosyl-L-methionine decarboxylase). Nature of the experiment: radiolabeled CO2 release assay, % inhibition at […]. The settings on record: read-out: % inhibition at 1 μM.

As for `Cc1nc2c(N)ncnc2n1[C@@H]1O[C@H](CN(C)C/C=C\CN)[C@@H](O)[C@H]1O` [Genz-644131, 8-methyl-5′-{[(Z)-4-aminobut-2-enyl]methylamino}-5′-deoxyadenosine], the KI (inactivation) in experiment [1] was 180 ± 20 nM. As to `CN(C/C=C\CN)C[C@H]1O[C@@H](n2cnc3c(N)ncnc32)[C@H](O)[C@@H]1O` [MDL73811, 5′-{[(Z)-4-amino-2-butenyl]methylamino}-5′-deoxyadenosine], the KI (inactivation) in experiment [2] amounted to 220 ± 90 nM. For `CN(C/C=C\CN)C[C@H]1O[C@@H](n2cnc3c(N)ncnc32)[C@@](O)(F)[C@@H]1O` [Genz-644043, 2′-fluoro-5′-{[(Z)-4-amino-2-butenyl]methylamino}-5′-deoxyadenosine], the inhibition – broadly, the percentage by which the read-out fell short of the control – at 1 µM in experiment [3] was 57%.
